From ChEMBL document CHEMBL1667828, “Synthesis and evaluation of new iRGD peptide analogs for tumor optical imaging” (Bioorg Med Chem Lett, 2011)
Where a SMILES comes first, the peptide text is derived from it. Bridges are numbered along the chain shown (N, C = ends). The star is where a group is joined. DOTA = O=C(O)CN1CCN(CC(=O)O)CCN(CC(=O)*)CCN(CC(=O)O)CC1

How the values were obtained:
Assay type in all cases: ADME, organism-based, Neoplasm; call rule not given here
[1] = Drug level in tumor of human MDA-MB-435 cell-xenograft athymic nude mouse model at 10 uM, iv after 4 hrs by optical imaging analysis; settings: in vivo
[2] = Drug level in tumor of human MDA-MB-435 cell-xenograft athymic nude mouse model at 10 uM, iv after 10 mins by optical imaging analysis; settings: in vivo
[3] = Drug level in tumor of human MDA-MB-435 cell-xenograft athymic nude mouse model at 10 uM, iv by PET analysis; settings: athymic nude mouse (human MDA-MB-435 xenograft), in vivo

| Compound | Drug uptake [1] | Drug uptake [2] | Drug uptake [3] |
| --- | --- | --- | --- |
| CC(=O)N[C@H](CSC1CC(=O)N(CCNC(=O)CCCCC[N+]2=C(/C=C/C3=C(Oc4ccc(S(=O)(=O)[O-])cc4)C(=C/C=C4/N(CCCCS(=O)(=O)[O-])c5ccc(S(=O)(=O)[O-])cc5C4(C)C)/CCC3)C(C)(C)c3cc(S(=O)(=O)[O-])ccc32)C1=O)C(=O)N[C@H]1CSSC[C@@H](C(N)=O)NC(=O)[C@H](CC(=O)O)NC(=O)[C@@H]2CCCN2C(=O)CNC(=O)[C@H](CCCCN)NC(=O)[C@H](CC(=O)O)NC(=O)CNC(=O)[C@H](CCCNC(=N)N)NC1=O.[Na+].[Na+].[Na+] (stereo not given in full) | Active | Active | Active |
| CC1(C)C(/C=C/C2=C(Oc3ccc(S(=O)(=O)[O-])cc3)C(=C/C=C3/N(CCCCS(=O)(=O)[O-])c4ccc(S(=O)(=O)[O-])cc4C3(C)C)/CCC2)=[N+](CCCCCC(=O)NCCN2C(=O)CC(SC[C@@H](NC(=O)CN3CCN(CC(=O)O)CCN(CC(=O)O)CCN(CC(=O)O)CC3)C(=O)N[C@H]3CSSC[C@@H](C(N)=O)NC(=O)[C@H](CC(=O)O)NC(=O)[C@@H]4CCCN4C(=O)CNC(=O)[C@H](CCCCN)NC(=O)[C@H](CC(=O)O)NC(=O)CNC(=O)[C@H](CCCNC(=N)N)NC3=O)C2=O)c2ccc(S(=O)(=O)[O-])cc21.[Na+].[Na+].[Na+] (stereo not given in full) | Active | Active | Active |
| CC(=O)N[C@@H](CS)C(=O)N[C@H]1CSSC[C@@H](C(N)=O)NC(=O)[C@H](CC(=O)O)NC(=O)[C@@H]2CCCN2C(=O)CNC(=O)[C@H](CCCCN)NC(=O)[C@H](CC(=O)O)NC(=O)CNC(=O)[C@H](CCCNC(=N)N)NC1=O (Ac-CCRGDKGPDC-NH2; disulfide 2-10) | Active | – | Active |
| N=C(N)NCCC[C@@H]1NC(=O)[C@@H](NC(=O)[C@H](CS)NC(=O)CN2CCN(CC(=O)O)CCN(CC(=O)O)CCN(CC(=O)O)CC2)CSSC[C@@H](C(N)=O)NC(=O)[C@H](CC(=O)O)NC(=O)[C@@H]2CCCN2C(=O)CNC(=O)[C@H](CCCCN)NC(=O)[C@H](CC(=O)O)NC(=O)CNC1=O ({DOTA}-CCRGDKGPDC-NH2; disulfide 2-10) | Active | – | Active |
